Experimental data from US20240360157A1, “TYK2 INHIBITORS” (BIOGEN MA INC., priority 2021, published 2024).
Structures can show the parent of a compound that is named as a salt.

Columns and labels:
Type in all cases: biochemical
[1] = biological target: human TYK2 catalytic kinase (JH1) domain (Homo sapiens (Human), UniProt P29597); experiment: ADP-Glo Kinase Assay, recombinant TYK2 catalytic kinase (JH1) domain; settings: recombinant JH1 domain 2 nM, 10 μM ATP, JAK3-974 peptide, mean, read-out: TYK2 biochem IC50 (nM) Mean
Outline: (§1)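 Reactions contain 50 μM peptide and run 100 minutes, with enzyme at 4, 0.2, 0.3 and 2 nM for JAK1, JAK2, JAK3 and TYK2. Generated ADP is read by luminescence; IC50 derives from normalized dose-response curves.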

[2] = biological target: human JAK1 catalytic kinase (JH1) domain (Homo sapiens (Human), UniProt P23458); experiment: ADP-Glo Kinase Assay, recombinant JAK1 catalytic kinase (JH1) domain; settings: recombinant JH1 domain 4 nM, 35 μM ATP, JAK3-342 peptide, mean, read-out: JAK1 biochem IC50 (nM) Mean
Outline: as §1

[3] = biological target: human JAK2 catalytic kinase (JH1) domain (Homo sapiens (Human), UniProt O60674); experiment: ADP-Glo Kinase Assay, recombinant JAK2 catalytic kinase (JH1) domain; settings: recombinant JH1 domain 0.2 nM, 15 μM ATP, JAK3-974 peptide, mean, read-out: JAK2 biochem IC50 (nM) Mean
Outline: as §1

[4] = biological target: human JAK3 catalytic kinase (JH1) domain (Homo sapiens (Human), UniProt P52333); experiment: ADP-Glo Kinase Assay, recombinant JAK3 catalytic kinase (JH1) domain; settings: recombinant JH1 domain 0.3 nM, 4 μM ATP, JAK3-974 peptide, mean, read-out: JAK3 biochem IC50 (nM) Mean
Outline: as §1

Sequence of human TYK2 catalytic kinase (JH1) domain (P29597 897-1176): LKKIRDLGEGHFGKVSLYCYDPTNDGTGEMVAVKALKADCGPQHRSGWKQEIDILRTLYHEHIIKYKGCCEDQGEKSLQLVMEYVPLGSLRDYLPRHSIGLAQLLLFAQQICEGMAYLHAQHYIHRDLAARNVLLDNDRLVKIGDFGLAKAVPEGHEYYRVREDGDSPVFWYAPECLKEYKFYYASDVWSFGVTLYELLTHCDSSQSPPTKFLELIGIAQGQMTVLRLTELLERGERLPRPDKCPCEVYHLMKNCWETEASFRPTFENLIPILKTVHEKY
Sequence of human JAK1 catalytic kinase (JH1) domain (P23458 875-1153): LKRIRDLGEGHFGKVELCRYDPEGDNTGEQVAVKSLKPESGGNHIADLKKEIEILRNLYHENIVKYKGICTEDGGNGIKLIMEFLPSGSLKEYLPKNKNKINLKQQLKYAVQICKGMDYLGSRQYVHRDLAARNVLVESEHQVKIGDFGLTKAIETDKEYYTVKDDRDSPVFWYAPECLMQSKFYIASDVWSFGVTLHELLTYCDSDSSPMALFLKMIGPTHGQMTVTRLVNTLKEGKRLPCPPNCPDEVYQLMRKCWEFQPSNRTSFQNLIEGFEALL
Sequence of human JAK3 catalytic kinase (JH1) domain (P52333 822-1111): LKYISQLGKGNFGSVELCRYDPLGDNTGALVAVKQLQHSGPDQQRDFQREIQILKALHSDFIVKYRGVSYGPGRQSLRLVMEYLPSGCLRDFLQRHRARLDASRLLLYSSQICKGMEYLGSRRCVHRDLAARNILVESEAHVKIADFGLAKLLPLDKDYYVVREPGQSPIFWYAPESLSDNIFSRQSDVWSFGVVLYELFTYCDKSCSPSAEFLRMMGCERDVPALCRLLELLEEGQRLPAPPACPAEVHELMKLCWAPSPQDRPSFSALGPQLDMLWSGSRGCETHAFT
Sequence of human JAK2 catalytic kinase (JH1) domain (O60674 849-1124): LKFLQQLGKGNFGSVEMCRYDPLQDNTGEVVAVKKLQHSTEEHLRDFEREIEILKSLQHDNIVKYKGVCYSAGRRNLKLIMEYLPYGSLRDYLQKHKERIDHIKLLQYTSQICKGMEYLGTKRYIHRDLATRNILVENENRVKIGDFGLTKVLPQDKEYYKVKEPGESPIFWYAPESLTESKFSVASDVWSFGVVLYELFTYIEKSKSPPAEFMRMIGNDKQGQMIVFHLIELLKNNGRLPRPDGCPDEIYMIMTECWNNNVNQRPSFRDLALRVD

Row | Compound | IC50 [1] [nM] | IC50 [2] [nM] | IC50 [3] [nM] | IC50 [4] [nM]
1 | CC(C(=O)N1C2CCC1CN(c1ncnn3cc(-c4cnn(C(F)F)c4)cc13)C2)C(F)(F)F (centres unmarked) [Example 31, 1-(3-(6-(1-(difluoromethyl)-1H-pyrazol-4-yl)pyrrolo[2,1-f][1,2,4]triazin-4-yl)-3,8-diazabicyclo[3.2.1]octan-8-yl)-3,3,3-trifluoro-2-methylpropan-1-one trifluoroacetate] | 193 | 1480 | 4460 | 6320
2 | CC(C)(F)C(=O)N1C2CCC1CN(c1ncnn3cc(-c4cnn(C(F)F)c4)cc13)C2 [Example 32, 1-(3-(6-(1-(difluoromethyl)-1H-pyrazol-4-yl)pyrrolo[2,1-f][1,2,4]triazin-4-yl)-3,8-diazabicyclo[3.2.1]octan-8-yl)-2-fluoro-2-methylpropan-1-one trifluoroacetate] | 242 | 1800 | 4400 | 2990
3 | C[C@]1(F)C[C@@H](C(=O)N2C3CCC2CN(c2ncnn4cc(-c5cnn(C(F)F)c5)cc24)C3)C1 [Example 33, (3-(6-(1-(difluoromethyl)-1H-pyrazol-4-yl)pyrrolo[2,1-f][1,2,4]triazin-4-yl)-3,8-diazabicyclo[3.2.1]octan-8-yl)((1s,3s)-3-fluoro-3-methylcyclobutyl)methanone trifluoroacetate] | 476 | 854 | 6140 | 4430
4 | C[C@]1(F)C[C@H](C(=O)N2C3CCC2CN(c2ncnn4cc(-c5cnn(C(F)F)c5)cc24)C3)C1 [Example 34, (3-(6-(1-(difluoromethyl)-1H-pyrazol-4-yl)pyrrolo[2,1-f][1,2,4]triazin-4-yl)-3,8-diazabicyclo[3.2.1]octan-8-yl)((1r,3r)-3-fluoro-3-methylcyclobutyl)methanone trifluoroacetate] | 510 | 3190 | 7520 | 9510
5 | CCOC1CC1C(=O)N1C2CCC1CN(c1ncnn3cc(-c4cnn(C(F)F)c4)cc13)C2 (centres unmarked) [Example 35, (3-(6-(1-(difluoromethyl)-1H-pyrazol-4-yl)pyrrolo[2,1-f][1,2,4]triazin-4-yl)-3,8-diazabicyclo[3.2.1]octan-8-yl)(2-ethoxycyclopropyl)methanone trifluoroacetate] | 856 | 4660 | 10000 | 10000
6 | O=C(C1CC(O)(C(F)(F)F)C1)N1C2CCC1CN(c1ncnn3cc(-c4cnn(C(F)F)c4)cc13)C2 (centres unmarked) [Example 36, (3-(6-(1-(difluoromethyl)-1H-pyrazol-4-yl)pyrrolo[2,1-f][1,2,4]triazin-4-yl)-3,8-diazabicyclo[3.2.1]octan-8-yl)(3-hydroxy-3-(trifluoromethyl)cyclobutyl)methanone trifluoroacetate] | 968 | 2200 | 7490 | 5840
7 | COc1cc(-n2cc3nccc(N4CC5CCC(C4)N5C(=O)[C@@H]4C[C@H]4F)c3n2)ccn1 [Example 37, ((1S,2R)-2-fluorocyclopropyl)(3-(2-(2-methoxypyridin-4-yl)-2H-pyrazolo[4,3-b]pyridin-7-yl)-3,8-diazabicyclo[3.2.1]octan-8-yl)methanone] | 11 | 72 | 88 | 868
8 | CCC(=O)N1C2CCC1CN(c1ncnn3cc(-c4cnn(C(F)F)c4)cc13)C2 [Example 41, 1-(3-(6-(1-(difluoromethyl)-1H-pyrazol-4-yl)pyrrolo[2,1-f][1,2,4]triazin-4-yl)-3,8-diazabicyclo[3.2.1]octan-8-yl)propan-1-one] | 560 | 2260 | 8760 | 8430
9 | CC(C)C(=O)N1C2CCC1CN(c1ncnn3cc(-c4cnn(C(F)F)c4)cc13)C2 [Example 42, 1-(3-(6-(1-(difluoromethyl)-1H-pyrazol-4-yl)pyrrolo[2,1-f][1,2,4]triazin-4-yl)-3,8-diazabicyclo[3.2.1]octan-8-yl)-2-methylpropan-1-one] | 466 | 5220 | 7960 | 9510
10 | O=C(CC(F)(F)F)N1C2CCC1CN(c1ncnn3cc(-c4cnn(C(F)F)c4)cc13)C2 [Example 43, 1-(3-(6-(1-(difluoromethyl)-1H-pyrazol-4-yl)pyrrolo[2,1-f][1,2,4]triazin-4-yl)-3,8-diazabicyclo[3.2.1]octan-8-yl)-3,3,3-trifluoropropan-1-one] | 223 | 892 | 5200 | 4640
11 | N#CCC(=O)N1C2CCC1CN(c1ncnn3cc(-c4cnn(C(F)F)c4)cc13)C2 [Example 44, 3-(3-(6-(1-(difluoromethyl)-1H-pyrazol-4-yl)pyrrolo[2,1-f][1,2,4]triazin-4-yl)-3,8-diazabicyclo[3.2.1]octan-8-yl)-3-oxopropanenitrile] | 236 | 395 | 4180 | 5390
12 | O=C(N1C2CCC1CN(c1ncnn3cc(-c4cnn(C(F)F)c4)cc13)C2)C1(C(F)(F)F)CC1 [Example 45, (3-(6-(1-(difluoromethyl)-1H-pyrazol-4-yl)pyrrolo[2,1-f][1,2,4]triazin-4-yl)-3,8-diazabicyclo[3.2.1]octan-8-yl)(1-(trifluoromethyl)cyclopropyl)methanone] | 988 | 7300 | 9490 | 6010
13 | O=C(C1CC(F)C1)N1C2CCC1CN(c1ncnn3cc(-c4cnn(C(F)F)c4)cc13)C2 (centres unmarked) [Example 48, (3-(6-(1-(difluoromethyl)-1H-pyrazol-4-yl)pyrrolo[2,1-f][1,2,4]triazin-4-yl)-3,8-diazabicyclo[3.2.1]octan-8-yl)(3-fluorocyclobutyl)methanone] | 483 | 3780 | 8770 | 9430
14 | O=C(C1CC1(F)F)N1C2CCC1CN(c1ncnn3cc(-c4cnn(C(F)F)c4)cc13)C2 (centres unmarked) [Example 49, (2,2-difluorocyclopropyl)(3-(6-(1-(difluoromethyl)-1H-pyrazol-4-yl)pyrrolo[2,1-f][1,2,4]triazin-4-yl)-3,8-diazabicyclo[3.2.1]octan-8-yl)methanone] | 81 | 475 | 2100 | 4900
15 | O=C(N1C2CCC1CN(c1ncnn3cc(-c4cnn(C(F)F)c4)cc13)C2)C1(F)CC1 [Example 50, (3-(6-(1-(difluoromethyl)-1H-pyrazol-4-yl)pyrrolo[2,1-f][1,2,4]triazin-4-yl)-3,8-diazabicyclo[3.2.1]octan-8-yl)(1-fluorocyclopropyl)methanone] | 295 | 1040 | 6150 | 2020
16 | O=C(C1CCC1)N1C2CCC1CN(c1ncnn3cc(-c4cnn(C(F)F)c4)cc13)C2 [Example 51, cyclobutyl(3-(6-(1-(difluoromethyl)-1H-pyrazol-4-yl)pyrrolo[2,1-f][1,2,4]triazin-4-yl)-3,8-diazabicyclo[3.2.1]octan-8-yl)methanone] | 407 | 2830 | 9130 | 7870
17 | CC1(C(=O)N2C3CCC2CN(c2ncnn4cc(-c5cnn(C(F)F)c5)cc24)C3)CCC1 [Example 52, (3-(6-(1-(difluoromethyl)-1H-pyrazol-4-yl)pyrrolo[2,1-f][1,2,4]triazin-4-yl)-3,8-diazabicyclo[3.2.1]octan-8-yl)(1-methylcyclobutyl)methanone] | 425 | 6480 | 9080 | 9370
